{"source": "patent US10821091B2", "about": "“Retinoid compositions and methods of increasing immune cell-mediated killing of IDH mutant cancer cells” (UNIVERSITY OF PITTSBURGH—OF THE COMMONWEALTH SYSTEM OF …, priority 2017, dated 2020)", "key": {"IDH mutant tumors [1]": {"test_system": "IDH mutant tumors", "test": "NK depletion (anti-NK1.1) experiment in tumor-bearing C57BL6/J nude mice", "type": "in vivo", "description": "Mice. […] DMSO-treated mice were used as controls.\nAnti-tumor effects of ATRA in vivo is dependent upon NK activity in vivo. Contrary to the delayed pro-differentiation effect of ATRA in vitro (FIG. 13A through 13D), the anti-tumor effects in vivo were more immediate. Thus, it was hypothesized that ATRA exercises alternate pathways to curb tumor growth. […] To further substantiate the role of NKs in anti-tumor effect of ATRA, a NK blocking experiment was performed in vivo. Briefly, IDH mutant or WT tumor-bearing C57BL6/J nude mice were injected with […] anti-NK1.1 (or control isotype) antibody intra-peritoneally on the first day of ATRA treatment. ATRA treatment was started when tumors were about 25 mm^2 in size and administered every other day."}, "IDH mutant tumors [2]": {"test_system": "IDH mutant tumors", "test": "Flow cytometry of tumor-infiltrating lymphocytes (TILs)", "type": "in vivo", "conditions": "IDH mutant tumor-bearing mice, vs DMSO-treated controls", "description": "Flow cytometry for TILs. IDH WT and mutant tumors were dissociated to form a single cell suspension (SCS). The SCS was then overlaid onto sucrose gradient (Lympholyte-M) and centrifuged at 2400 rpm for 20 minutes. Immune cells at the interphase of the 2 liquids were collected and washed once with PBS. The cells were then stained with appropriate antibodies and acquired on a BD LSR Fortessa flow cytometer. Briefly, cells were washed with PBS and stained with 1 μg antibody for 30 minutes at 4° C. After incubation, the cells were washed three times with FACS buffer (PBS+10% FBS+0.1% Na-azide), resuspended in a final volume of 200 μl of FACS buffer and run through the flow cytometer. Flow cytometry data was analyzed on the Flowjo® v9.1 software. Antibodies used for flow cytometry were as follows: CD45- PE-Cy7, NKp46-FITC, CD11b-APC-Cy7, Gr-1-APC, F4/80-eFluor450, Ly6-c-PerCP-Cy5.5 and CD11c-PE.\nATRA promotes tumor stasis in IDH mutant tumor-bearing mice. To determine the value of ATRA as a therapeutic modality, its anti-tumor efficacy in vivo was evaluated. Athymic nude mice were implanted with 10^6 IDH mutant or WT primary glioma cells in the flank. 21 days after tumor inoculation (when tumors were about 25 mm^2), 10 mg/kg ATRA was administered every other day for 21 days. Tumors were measured every 3 days. […] Resected tumors from ATRA or DMSO-treated mice were digested to obtain single cell suspensions and assessed for killing by human and mouse NK cells ex vivo."}, "[3]": {"test_system": "IDH mutant primary glioma cells", "test": "Tumor growth in athymic nude mice with flank glioma tumors", "type": "in vivo", "description": "(§1) Mice. 6-8 week old Balb/c nude mice (CAnN.Cg-Foxn1nu/Crl) were purchased from Charles River Laboratories. Mice were injected with 10^6 IDH WT or mutant primary glioma cells sub-cutaneously in the right flank. When the tumors were about 25 mm^2, ATRA treatment was started. 10 mg/Kg ATRA was administered to mice intra-peritoneally (i.p.) every alternate day until termination of the experiment. DMSO-treated mice were used as controls. The mice were monitored for signs of drug toxicity such as weight-loss, lethargy, skin lesions and diarrhea. The tumors were measured every 3 days, and the mice were sacrificed when the tumors were about 400 mm^2. For NK depletion experiments, 6-week old B6 nude mice (B6.Cg-Foxn1nu/J) were purchased from The Jackson Laboratory. NK depletion was performed by injecting mice with 200 μg of anti-NK1.1 antibody (Biolegend) i.p. on the day ATRA treatment was started. Mice injected with 200 μg of an isotype antibody were used as controls. Mice were bled and evaluated for circulating NKs by flow cytometry.\nATRA promotes tumor stasis in IDH mutant tumor-bearing mice. To determine the value of ATRA as a therapeutic modality, its anti-tumor efficacy in vivo was evaluated. […] Tumors were measured every 3 days. […] Resected tumors from ATRA or DMSO-treated mice were digested to obtain single cell suspensions and assessed for killing by human and mouse NK cells ex vivo."}, "[4]": {"conditions": "mouse, in vivo", "description": "as §1\nRetinoic acid has been used as a chemotherapeutic agent in a wide variety of cancers, in pre-clinical as well as clinical applications. 13-cis-RA is the most common form of RA used in clinics, and is effective in a variety of neoplasms. Therefore, the efficacy of 13-cis RA was compared with ATRA and Bexarotene (a synthetic retinoic acid analogue) in IDH mutant gliomas."}}}
{"compound": "CC1=C(/C=C/C(C)=C/C=C/C(C)=C/C(=O)O)C(C)(C)CCC1", "note": "[ATRA, all-trans retinoic acid]", "values": [{"measurement": "levels of NKs in TILs by flow cytometry", "setting": "IDH mutant tumors [1]; ATRA-treated mice vs DMSO-treated controls", "value": "higher levels of NKs"}, {"measurement": "tumor growth", "setting": "IDH mutant tumors [1]; IDH mutant tumor-bearing C57BL6/J nude mice, ATRA every other day, vs DMSO-treated controls", "value": "significantly slower tumor growth"}, {"measurement": "tumor growth after depletion of NKs (anti-NK1.1)", "setting": "IDH mutant tumors [1]; IDH mutant tumor-bearing mice treated with ATRA", "value": "depletion of NKs abrogated the anti-tumor effects of ATRA"}, {"measurement": "MDSCs and monocytes in TILs", "setting": "IDH mutant tumors [2]", "value": "lower MDSCs and monocytes"}, {"measurement": "NKs in TILs", "setting": "IDH mutant tumors [2]", "value": "higher number"}, {"measurement": "infiltration of immune cells overall (TILs)", "setting": "IDH mutant tumors [2]", "value": "higher infiltration of immune cells overall"}, {"measurement": "macrophages in TILs", "setting": "IDH mutant tumors [2]", "value": "higher number of macrophages"}, {"measurement": "tumor growth", "setting": "[3]; 10 mg/kg every other day for 21 days, vs DMSO (vehicle)-treated mice and mice with WT tumors", "value": "significantly slower tumor growth"}, {"measurement": "ex vivo expression of ULBP1 and ULBP3 in tumors", "setting": "[3]; ATRA-treated IDH mutant tumors (data not shown)", "value": "increased ex vivo expression of ULBP1 and ULBP3"}, {"measurement": "toxicity in treated mice (weight loss and wasting)", "setting": "[4]", "value": "not observed in ATRA-treated mice"}]}
